The term IC50 denotes the point on the concentration scale where inhibition reaches its midpoint.

The target of one assay is Sir2 (Saccharomyces cerevisiae, UniProt P53686). Type of assay: biochemical. The protocol: In parallel to the in silico screen, a solution screen for Sir2 effectors was carried out. A library containing about 10,000 Diversity Oriented Synthesis (DOS) compounds and natural product sub-libraries of compounds was screened using both yHst2 and hSIRT1 proteins.
A further assay addresses Hst2 (residues 1-294) (Saccharomyces cerevisiae, UniProt P53686). Kind of assay: biased in vitro screening assay for relief of nicotinamide inhibition (Fluor de Lys). Type of assay: biochemical. As to conditions: […] μM nicotinamide present. The protocol:
This in vitro screen was carried out as follows.

Chain of Sir2 (P53686 1-294): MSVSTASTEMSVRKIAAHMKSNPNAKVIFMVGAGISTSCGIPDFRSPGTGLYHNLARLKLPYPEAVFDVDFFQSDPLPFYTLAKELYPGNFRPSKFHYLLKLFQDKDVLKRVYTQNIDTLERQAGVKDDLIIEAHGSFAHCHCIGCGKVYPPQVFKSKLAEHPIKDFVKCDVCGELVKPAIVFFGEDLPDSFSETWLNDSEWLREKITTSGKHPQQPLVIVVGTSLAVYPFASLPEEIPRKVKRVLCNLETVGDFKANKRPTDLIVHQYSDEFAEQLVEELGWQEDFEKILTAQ
Chain of Hst2 (residues 1-294) (P53686 1-294): as above

The compound Zinc pyrithione [reference compound] registered an IC50 on Sir2 of 1.8 ± 1.3 µM.

For `CC1(C)CC(=O)C2=C(C1)NC1=C(C(=O)CC(C)(C)C1)C2c1cccc(F)c1` [9-(3-Fluoro-phenyl)-3,3,6,6-tetramethyl-2,4,6,7,9,10-hexahydro-2H,5H-acridine-1,8-dione], the “Fold Activation” value on Hst2 (residues 1-294) is recorded as 2.2.

As to “6-(4-Fluoro- phenyl)-2,3- diphenyl-1,5- dihydro- imidazo[1,2- α]imidazole”, on Hst2 (residues 1-294), the “Fold Activation” value stood at 2.9.

Compound `O=C(O)CCN1Cc2ccccc2C1=O` displayed an IC50 at Sir2 of 19.8 ± 1.1 µM.
